According to patent US5929070A (Eli Lilly and Company, priority 1997, dated 1999):

Assays:
migraine pain = assay: Utility tests for migraine analgesic activity (mouse writhing, acetic acid-induced writhing, protein extravasation and related tests); type: in vivo, mice; rats; guinea pigs; rabbits; conditions: summary statement for the utility tests, no values given
5-HT1C receptor = assay: pharmacological studies, 5-HT1C receptor activity
[1] = system: muscarinic cholinergic receptor; assay: pharmacological studies, muscarinic cholinergic receptor activity

SMILES: Cc1cc2c(s1)Nc1ccccc1N=C2N1CCN(C)CC1 [olanzapine, 2-methyl-4-(4-methyl-1-piperazinyl)-10H-thieno[2,3-b][1,5]benzodiazepine]
- migraine pain analgesic effect (migraine pain): can provide a significant migraine pain analgesic effect
- activity at the 5-HT1C receptor (5-HT1C receptor): active
- muscarinic cholinergic receptor activity [1]: has muscarinic cholinergic receptor activity
